Experimental data taken from patent US7807676B2, “Diketo-Piperazine and Piperidine derivatives as antiviral agents” (priority 2006, dated 2010).
Where a name gives a salt, the structure may show the parent alone.

tested on: HIV-1 single-round infectious reporter virus; assay: Single-round infectious HIV-1 luciferase reporter virus infection of HeLa CD4 cells (antiviral EC50); assay type: cell-based; conditions: Human immunodeficiency virus 1, HeLa, read-out: EC50 Group from Table 3
Procedure: • Virus production—Human embryonic Kidney cell line, 293T, was propagated in Dulbecco's Modified Eagle Medium (Invitrogen, Carlsbad, Calif.) containing 10% fetal Bovine serum (FBS, Sigma, St. Louis, Mo.). • Virus infection—Human epithelial cell line, HeLa, expressing the HIV-1 receptor CD4 was propagated in Dulbecco's Modified Eagle Medium (Invitrogen, Carlsbad, Calif.) containing 10% fetal Bovine serum (FBS, Sigma, St. Louis, Mo.) and supplemented with 0.2 mg/mL Geneticin (Invitrogen, Carlsbad, Calif.). Virus-Single-round infectious reporter virus was produced by co-transfecting human embryonic Kidney 293 cells with an HIV-1 envelope DNA expression vector and a proviral cDNA containing an envelope deletion mutation and the luciferase reporter gene inserted in place of HIV-1 nef sequences (Chen et al, Ref. 41). Transfections were performed using lipofectAMINE PLUS reagent as described by the manufacturer (Invitrogen, Carlsbad, Calif.). Experiment • 1. HeLa CD4 cells were plated in 96 well plates at a cell density of 1×10^4 cells per well in 100 μl Dulbecco's Modified Eagle Medium containing 10% fetal Bovine serum and incubated overnight. • 2. Compound was added in a 2 μl dimethylsulfoxide solution, so that the final assay concentration would be ≦10 μM. • 3. 100 μl of single-round infectious reporter virus in Dulbecco's Modified Eagle Medium was then added to the plated cells and compound at an approximate multiplicity of infection (MOI) of 0.01, resulting in a final volume of 200 μl per well. • 4. Virally-infected cells were incubated at 37 degrees Celsius, in a CO2 incubator, and harvested 72 h after infection. • 5. Viral infection was monitored by measuring luciferase expression from viral DNA in the infected cells using a luciferase reporter gene assay kit, as described by the manufacturer (Roche Molecular Biochemicals, Indianapolis, Ind.). Infected cell supernatants were removed and 50 μl of lysis buffer was added per well. After 15 minutes, 50 μl of freshly-reconstituted luciferase assay reagent was added per well. Luciferase activity was then quantified by measuring luminescence using a Wallac microbeta scintillation counter. • 6. The percent inhibition for each compound was calculated by quantifying the level of luciferase expression in cells infected in the presence of each compound as a percentage of that observed for cells infected in the absence of compound and subtracting such a determined value from 100. • 7. An EC50 provides a method for comparing the antiviral potency of the compounds of this disclosure. The effective concentration for fifty percent inhibition (EC50) was calculated with the Microsoft Excel Xlfit curve fitting software. For each compound, curves were generated from percent inhibition calculated at 10 different concentrations by using a four parameter logistic model (model 205). Table 3 is the key for the data in Table 4. Results

SMILES | EC50
O=C(C(=O)N1CCN(C2=NCCCN2c2ccccc2)CC1)c1c[nH]c2c(-n3ccnn3)ncc(F)c12 [A-40] | > 500 nM
COc1ccnc2[nH]cc(C(=O)C(=O)N3CCN(c4nnnn4-c4ccccc4)CC3)c12 [A-11] | < 500 nM
O=C(C(=O)N1CCN(c2nnnn2C2CCCCC2)CC1)c1c[nH]c2c(-n3ccnn3)ncc(F)c12 [E-8] | < 500 nM
COc1cnc(C(=O)NCCO)c2[nH]cc(C(=O)C(=O)N3CCN(c4nnnn4-c4ccccc4)CC3)c12 [B-64] | < 500 nM
COc1cnc(-c2cnccc2C)c2[nH]cc(C(=O)C(=O)N3CCN(c4nnnn4-c4ccccn4)CC3)c12 [H-7] | < 500 nM
CCc1ncc(-c2ncc(OC)c3c(C(=O)C(=O)N4CCN(c5nnnn5-c5ccccn5)CC4)c[nH]c23)s1 [B-91] | < 500 nM
CCOC(=O)c1cc(-c2ncc(F)c3c(C(=O)C(=O)N4CCN(c5nnnn5-c5ccccc5)CC4)c[nH]c23)nn1C [B-43] | < 500 nM
COc1cnc(-n2cnc(C)n2)c2[nH]cc(C(=O)C(=O)N3CCC(N4CCN=C4c4ccccc4)CC3)c12 [G-10b] | > 500 nM
CN1CCN(CCCNC(=O)c2cc(-c3ncc(F)c4c(C(=O)C(=O)N5CCN(c6nnnn6-c6ccccc6)CC5)c[nH]c34)n[nH]2)CC1 [B-39] | < 500 nM
COc1cnc(-n2cnc(C)n2)c2[nH]cc(C(=O)C(=O)N3CCN(c4nc(S(C)(=O)=O)nn4-c4ccccc4)CC3)c12 [G-28b] | < 500 nM
COc1cnc(-n2cnc(C)n2)c2[nH]cc(C(=O)C(=O)N3CCN(c4ncccc4C(=O)NCCCN(C)C)CC3)c12 [D-51] | > 500 nM
COc1cnc(-c2ccnc(F)c2)c2[nH]cc(C(=O)C(=O)N3CCN(c4nnnn4-c4ccccn4)CC3)c12 [H-8] | < 500 nM
N#CCCCC(=O)c1cccnc1N1CCN(C(=O)C(=O)c2c[nH]c3c(-n4ccnn4)ncc(F)c23)CC1 [D-46] | > 500 nM
O=C(C(=O)N1CCN(C2=NCCN2c2ccccc2)CC1)c1c[nH]c2c(-n3ccnn3)ncc(F)c12 [G-12a] | < 500 nM
O=C(C(=O)N1CCN(c2ncnn2-c2ccccc2)CC1)c1c[nH]c2c(-n3ccnn3)ncc(F)c12 [G-27a] | < 500 nM
CC(=O)c1ncc(F)c2c(C(=O)C(=O)N3CCN(c4nnnn4-c4ccccc4)CC3)c[nH]c12 [B-47] | < 500 nM
O=C(NC1CCCCC1)c1cccnc1N1CCN(C(=O)C(=O)c2c[nH]c3c(-n4ccnn4)ncc(F)c23)CC1 [D-34] | < 500 nM
CCN(C)C(=O)c1cc(-c2ncc(F)c3c(C(=O)C(=O)N4CCN(c5nnnn5-c5ccccc5)CC4)c[nH]c23)n[nH]1 [F-9] | < 500 nM
Cc1cc(N2CCN(C(=O)C(=O)c3c[nH]c4c(-n5ccnn5)ncc(F)c34)CC2)n(-c2ccccc2)n1 [A-48] | < 500 nM
O=C(C(=O)N1CCN(c2cccc(C3CCCCC3)c2)CC1)c1c[nH]c2c(-n3ccnn3)ncc(F)c12 [A-41] | > 500 nM
Cc1nc(N2CCN(C(=O)C(=O)c3c[nH]c4c(-n5ccnn5)ncc(F)c34)CC2)n(-c2ccccc2)n1 [G-32] | < 500 nM
O=C(C(=O)N1C[C@@H]2C[C@H]1CN2c1nnnn1-c1ccccc1)c1c[nH]c2c(-n3ccnn3)ncc(F)c12 [A-74] | > 500 nM
C/C(=N\O)c1ncc(F)c2c(C(=O)C(=O)N3CCN(c4nnnn4-c4ccccc4)CC3)c[nH]c12 [B-49] | < 500 nM
COc1cnc(-n2cnc(C)n2)c2[nH]cc(C(=O)C(=O)N3CCN(c4cnnn4-c4ccccc4)CC3)c12 [G-30b] | < 500 nM
O=C(C(=O)N1CCN(c2ncccc2C(=O)N2CCOCC2)CC1)c1c[nH]c2c(-n3ccnn3)ncc(F)c12 [D-38] | > 500 nM
COc1cnc(-c2ccn(CC(=O)O)n2)c2[nH]cc(C(=O)C(=O)N3CCN(c4nnnn4-c4ccccn4)CC3)c12 [B-75] | < 500 nM
O=C1C(c2ccccc2)=C(N2CCN(C(=O)C(=O)c3c[nH]c4c(-n5ccnn5)ncc(F)c34)CC2)c2ccccc21 [D-23] | < 500 nM
O=C(C(=O)N1CCN(c2c[nH]nc2-c2ccccc2)CC1)c1c[nH]c2c(-n3ccnn3)ncc(F)c12 [G-5a] | < 500 nM

SMILES | EC50
Cc1cc(N2CCN(C(=O)C(=O)c3c[nH]c4c(-n5ccnn5)ncc(F)c34)CC2)nc(-c2ccccc2O)n1 [A-35] | < 500 nM
COc1cnc(-c2cc(C(=O)NCCOCCO)[nH]n2)c2[nH]cc(C(=O)C(=O)N3CCN(c4nnnn4-c4ccccc4)CC3)c12 [B-9, N-(2-(2-hydroxyethoxy)ethyl)-3-(4-methoxy-3-(2-oxo-2-(4-(1-phenyl-1H-tetrazol-5-yl)piperazin-1-yl)acetyl)-1H-pyrrolo[2,3-c]pyridin-7-yl)-1H-pyrazole-5-carboxamide.TFA] | < 500 nM
COc1cnc(-n2cnc(C)n2)c2[nH]cc(C(=O)C(=O)N3[C@H](C)CN(c4nnnn4-c4ccccc4)C[C@@H]3C)c12 [A-73] | < 500 nM
O=C(C(=O)N1CCN(c2ncccc2-c2ccccc2)CC1)c1c[nH]c2c(-n3ccnn3)ncc(F)c12 [G-3b] | < 500 nM
CN(C)CCn1ccc(-c2ncc(F)c3c(C(=O)C(=O)N4CCN(c5nnnn5-c5ccccc5)CC4)c[nH]c23)n1 [B-30] | < 500 nM
Cc1nc(N2CCN(C(=O)C(=O)c3c[nH]c4c(-n5ccnn5)ncc(F)c34)[C@H](C)C2)c2c(-c3ccccc3)csc2n1 [D-26] | > 500 nM
COc1cnc(-c2ncc(OC)c3c(C(=O)C(=O)N4CCN(c5nnnn5-c5ccccc5)CC4)c[nH]c23)c2[nH]ccc12 [A-64] | < 500 nM
C[C@@H]1CN(C(=O)C(=O)c2c[nH]c3c(-n4ccnn4)ncc(F)c23)CCN1c1nnnn1-c1ccccc1 [A-45] | < 500 nM
COc1cnc(-c2ccnc(C)c2)c2[nH]cc(C(=O)C(=O)N3CCN(c4nnnn4-c4ccccn4)CC3)c12 [H-12] | < 500 nM
CCOC(=O)CCC(=O)c1cccnc1N1CCN(C(=O)C(=O)c2c[nH]c3c(-n4ccnn4)ncc(F)c23)CC1 [D-40] | > 500 nM
O=C(C(=O)N1CCN(c2nnnn2-c2ccccc2)CC1)c1c[nH]c2ncccc12 [A-10] | < 500 nM
C[C@@H]1CN(c2snnc2-c2ccccc2)CCN1C(=O)C(=O)c1c[nH]c2c(-n3ccnn3)ncc(F)c12 [D-30] | < 500 nM
COc1cnc(-n2cnc(C)n2)c2[nH]cc(C(=O)C(=O)N3CCN(c4ncccc4C(O)c4nccs4)CC3)c12 (stereo not shown) [A-66] | < 500 nM
O=C(C(=O)N1CCN(c2nnnn2-c2ccccc2)CC1)c1c[nH]c2c(-n3ccnn3)ncc(F)c12 [A-5] | < 500 nM
O=C(C(=O)N1CCC(c2c(-c3ccccc3)[nH]c3ccccc23)CC1)c1c[nH]c2c(-n3ccnn3)ncc(F)c12 [A-36] | > 500 nM
O=C(NCCN1CCOCC1)c1cc(-c2ncc(F)c3c(C(=O)C(=O)N4CCN(c5c[nH]nc5-c5ccccc5)CC4)c[nH]c23)n[nH]1 [B-54] | < 500 nM
COc1cnc(-c2cccnc2)c2[nH]cc(C(=O)C(=O)N3CCN(c4nnnn4-c4ccccn4)CC3)c12 [H-3] | < 500 nM
COc1cnc(-n2cnc(C)n2)c2[nH]cc(C(=O)C(=O)N3CCN(c4cn(Cc5ccccn5)nc4-c4ccccc4)CC3)c12 [G-7a] | < 500 nM
O=C(C(=O)N1CCN(c2nnc(O)n2-c2ccccc2)CC1)c1c[nH]c2c(-n3ccnn3)ncc(F)c12 [A-22] | < 500 nM
COc1cnc(-c2cc(C(=O)NCCN3CCCC3)[nH]n2)c2[nH]cc(C(=O)C(=O)N3CCN(c4nnnn4-c4ccccc4)CC3)c12 [B-11, 3-(4-methoxy-3-(2-oxo-2-(4-(1-phenyl-1H-tetrazol-5-yl)piperazin-1-yl)acetyl)-1H-pyrrolo[2,3-c]pyridin-7-yl)-N-(2-(pyrrolidin-1-yl)ethyl)-1H-pyrazole-5-carboxamide.TFA] | < 500 nM
COc1cnc(-n2cnc(NC(=O)C(C)(C)C)n2)c2[nH]cc(C(=O)C(=O)N3CCN(c4nnnn4-c4ccccn4)CC3)c12 [B-80] | < 500 nM
COc1ncc(-c2ncc(OC)c3c(C(=O)C(=O)N4CCN(c5nnnn5-c5ccccn5)CC4)c[nH]c23)s1 [B-88] | < 500 nM
C[C@@H]1CN(C(=O)C(=O)c2c[nH]c3c(Cl)ncc(O)c23)CCN1c1nnnn1-c1ccccc1 [A-56] | > 500 nM
COc1cnc(-n2cnc(C)n2)c2[nH]cc(C(=O)C(=O)N3CCN(c4cc(N(C)C)nnc4-c4ccccc4)CC3)c12 [G-14b] | < 500 nM
C[C@@H]1CN(c2ncccc2N2CC(C)(C)C2=O)CCN1C(=O)C(=O)c1c[nH]c2c(-n3ccnn3)ncc(F)c12 [D-28] | > 500 nM
CCc1ncn(-c2ncc(OC)c3c(C(=O)C(=O)N4CCN(c5nnnn5-c5ccccn5)CC4)c[nH]c23)n1 [A-69] | < 500 nM
CN(CCO)C(=O)c1cc(-c2ncc(F)c3c(C(=O)C(=O)N4CCN(c5nnnn5-c5ccccc5)CC4)c[nH]c23)n[nH]1 [B-36] | < 500 nM
